Reference: US20230357447A1, “TUMOR ACTIVATED MULTISPECIFIC ANTIBODIES FOR TARGETING CD28 AND PD-L1 AND METHODS OF USE THEREOF” (Janux Therapeutics, Inc., priority 2022, published 2023)

The compounds below were run on anti-CD28 scFv (SEQ ID NO: 9) (assay: Octet bio-layer interferometry kinetic binding of anti-CD28 scFv to peptides). Conditions: Octet RED96; biotinylated peptide loaded on streptavidin biosensor; anti-CD28 scFv in solution; 1:1 binding model.
Set-up: species or system human
Protocol: (§1) Association and dissociation signals were recorded in real time and analyzed using a 1:1 binding model within the instrument software. Analysis using a 1:1 binding model enabled the calculation of the on and off rate constants as well as affinity, KD.
as §1

Compound	kdis [s⁻¹]
CSCC[C@H](N)C(=O)N[C@@H](CC(=O)O)C(=O)N[C@@H](Cc1c[nH]c2ccccc12)C(=O)N[C@H]1CSSC[C@@H](C(=O)N[C@@H](Cc2ccccc2)C(=O)N[C@@H](CC(N)=O)C(=O)O)NC(=O)[C@H](CCC(=O)O)NC(=O)[C@H](CC(N)=O)NC(=O)[C@H](Cc2c[nH]c3ccccc23)NC(=O)[C@H](CC(C)C)NC(=O)[C@H](Cc2ccc(O)cc2)NC(=O)[C@H](CC(C)C)NC(=O)[C@@H]2CCCN2C1=O [Peptide-36]	0.00252
CSCC[C@H](N)C(=O)N[C@@H](Cc1c[nH]cn1)C(=O)N[C@@H](Cc1c[nH]c2ccccc12)C(=O)N[C@H]1CSSC[C@@H](C(=O)N[C@@H](Cc2ccc(O)cc2)C(=O)N[C@@H](CC(N)=O)C(=O)O)NC(=O)[C@H](CC(C)C)NC(=O)[C@H](Cc2ccc(O)cc2)NC(=O)[C@H](Cc2c[nH]c3ccccc23)NC(=O)[C@H](CC(C)C)NC(=O)[C@H](CC(=O)O)NC(=O)[C@H](C(C)C)NC(=O)[C@@H]2CCCN2C1=O [Peptide-49]	0.00186
CC[C@H](C)[C@@H]1NC(=O)[C@@H]2CCCN2C(=O)[C@@H](NC(=O)[C@H](Cc2c[nH]c3ccccc23)NC(=O)[C@H](CC(=O)O)NC(=O)[C@@H](N)CCSC)CSSC[C@@H](C(=O)N[C@@H](Cc2ccccc2)C(=O)N[C@@H](Cc2ccccc2)C(=O)O)NC(=O)[C@H](CCC(=O)O)NC(=O)[C@H](CC(N)=O)NC(=O)[C@H](Cc2c[nH]c3ccccc23)NC(=O)[C@H](CC(C)C)NC(=O)[C@H](CC(=O)O)NC1=O [Peptide-31]	0.00369
CSCC[C@H](N)C(=O)N[C@@H](CC(=O)O)C(=O)N[C@@H](Cc1c[nH]c2ccccc12)C(=O)N[C@H]1CSSC[C@@H](C(=O)N[C@@H](Cc2ccccc2)C(=O)N[C@@H](C)C(=O)O)NC(=O)[C@H](Cc2c[nH]cn2)NC(=O)[C@H](C(C)C)NC(=O)[C@H](Cc2c[nH]c3ccccc23)NC(=O)[C@H](CC(C)C)NC(=O)[C@H](CC(=O)O)NC(=O)[C@H](CCCNC(=N)N)NC(=O)[C@@H]2CCCN2C1=O [Peptide-41]	0.00154
CC[C@H](C)[C@@H]1NC(=O)[C@H](CC(=O)O)NC(=O)[C@H](CCCCN)NC(=O)[C@@H]2CCCN2C(=O)[C@@H](NC(=O)[C@H](Cc2c[nH]c3ccccc23)NC(=O)[C@H](CC(N)=O)NC(=O)[C@@H](N)CCSC)CSSC[C@@H](C(=O)N[C@@H](Cc2ccccc2)C(=O)N[C@@H](CC(N)=O)C(=O)O)NC(=O)[C@H](CC(C)C)NC(=O)[C@H](Cc2ccc(O)cc2)NC(=O)[C@H](Cc2c[nH]c3ccccc23)NC1=O [Peptide-34]	0.00684

Each compound was assayed on anti-CD28 scFv (assay: Phage binding ELISA (panning) of clonal phage on anti-CD28 scFv, with or without CD28 soluble protein). Conditions: Phage binding ELISA; captured anti-CD28 scFv pre-incubated with CD28 soluble protein.
Summary of the method: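 Wells pre-incubated with blocking buffer plus CD28 soluble protein or blocking buffer alone, then crude clonal phage supernatants added without washing for a short incubation. After washing, bound phage detected with HRP-conjugated anti-M13 antibody.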

Compound	CD28 scFv signal in presence of CD28
Phage-115 (MDWCPRYLWHECFN)	0.421
Phage-87 (MDWCPKDLWYLCFA)	0.213

Same assay, conditions: Phage binding ELISA; captured biotinylated anti-CD28 scFv, blocking buffer alone

Compound	CD28 scFv signal
Phage-115 (MDWCPRYLWHECFN)	2.490
Phage-87 (MDWCPKDLWYLCFA)	2.608

Same assay, conditions: Phage binding ELISA; clonal phage supernatant, background wells

Compound	Backgroud signal
Phage-146 (MDWCPRHLWSECFY)	0.136
Phage-115 (MDWCPRYLWHECFN)	0.105
Phage-135 (MDWCPKFLWHECFS)	0.065
Phage-151 (MDFCPISLWHECFF)	0.081
Phage-126 (MDWCPRFLWNECFN)	0.072
Phage-141 (MDWCPRSLWNVCFF)	0.106
Phage-139 (MDWCPRDLWDVCFA)	0.096
Phage-150 (MDWCPRHLWNVCFS)	0.058
Phage-87 (MDWCPKDLWYLCFA)	0.200

Same assay, conditions: clonal phage supernatant on captured anti-CD28 scFv pre-incubated with CD28 soluble protein

Compound	Phage binding ELISA CD28 scFv signal in presence of CD28
Phage-67 (MNWCPTALWHVCFN)	0.169
Phage-49 (MSWCPIHLWNECFN)	0.284
Phage-46 (MHWCPIDLWAECYA)	0.225

Same assay, conditions: clonal phage supernatant on captured biotinylated anti-CD28 scFv; blocking buffer alone

Compound	Phage binding ELISA CD28 scFv signal
Phage-67 (MNWCPTALWHVCFN)	1.644
Phage-49 (MSWCPIHLWNECFN)	2.057
Phage-46 (MHWCPIDLWAECYA)	2.278

Same assay, conditions: clonal phage supernatant; background (no anti-CD28 scFv signal)

Compound	Phage binding ELISA Backgroud signal
Phage-398 (MDWCPRNMWNECFF)	0.095
Phage-432 (IDWCPIIQGLPCFA)	0.058
Phage-437 (MDWCPVDRWADCFN)	0.071
Phage-396 (TDWCPRDMWYLCFN)	0.082
Phage-424 (ITQCPSTMWNRCSV)	0.067
Phage-388 (MDWCPRFMWNFCFF)	2.200
Phage-448 (MAWCPWASFDECLA)	0.104
Phage-420 (MFWCPSTMWNRCFD)	0.063
Phage-436 (MDWCPRDRWADCFN)	0.063
Phage-412 (QHWCPRDMWNDCYA)	0.066
Phage-402 (MDWCPRHMWHECFH)	0.067

Same assay, conditions: clonal phage supernatant; background signal

Compound	Phage binding ELISA Backgroud signal
Phage-352 (MDWCPIHLWYECFN)	0.080
Phage-230 (APWCQIISGLECLT)	0.080
Phage-373 (MDWCPRILWSDCFN)	0.082
Phage-246 (MDWCPKHLWNKCFN)	0.075
Phage-67 (MNWCPTALWHVCFN)	0.067
Phage-370 (MTWCPAYLWHECFN)	0.086
Phage-59 (MDWCPRDSWHLCFA)	0.073
Phage-174 (MDWCPKHLWNECFN)	0.063
Phage-51 (MDWCPMDLWDYCFN)	0.071
Phage-364 (MDWCPRSLWAQCFY)	0.067
Phage-40 (MDWCPIDMWDQCFN)	0.061
Phage-269 (DSFCTWSAWQECGR)	0.072
Phage-267 (MTLCLSVDLVHCWY)	0.114
Phage-259 (MDWCPRNLWHACFN)	0.071
Phage-198 (MDWCPRAMWNHCFN)	0.321
Phage-216 (MDWCPMNMWYQCFN)	0.110

Compound	Phage binding ELISA Backgroud signal
Phage-356 (MDWCPMYLWDECFF)	0.082
Phage-201 (MDWCPRDMWDQCFD)	0.072
Phage-330 (MDWCPRFLWDVCFN)	0.100
Phage-225 (MDWCPRDRWADCFF)	0.069
Phage-280 (MDWCPRYLWDYCFA)	0.073
Phage-344 (MDWCPRHLWVHCFS)	0.096
Phage-321 (MDWCPRDLWYVCFA)	0.095
Phage-253 (MVGCATSMWNRCLT)	0.256
Phage-49 (MSWCPIHLWNECFN)	0.083
Phage-348 (MAWCPWYLWDECFN)	0.200
Phage-159 (MAWCPMNLWDQCFF)	0.070
Phage-299 (MDWCPIYLWAECFN)	0.078
Phage-378 (MHWCPLHLWNECFA)	0.065
Phage-340 (MSWCPIDLWSECFA)	0.072
Phage-46 (MHWCPIDLWAECYA)	0.082
Phage-257 (MDWCPRFLWHECFN)	0.079
